Measurements: US8044100B2, “Methods and compositions for treating amyloid-related diseases” (Bellus Health Inc., priority 2004, dated 2011)

Tests used:
NAC peptide = target: T1, NAC peptide (Homo sapiens, UniProt P37840); test: Binding to NAC peptide by electrospray mass spectrometry; conditions: 5:1 ratio compound:NAC (100 μM:20 μM or 200 μM:40 μM), pH 7.4; bound complex peak area / unbound NAC peak area
T1 construct: NAC is a 35 amino acid long peptide with highly hydrophobic stretches
Procedure: The ability of the compounds of the present invention to bind to NAC peptide in aqueous solution was evaluated. The binding ability correlates to the intensities of the peptide-compound complex peaks observed by the Electrospray Mass Spectrum. Millipore distilled deionized water was used to prepare all aqueous solutions. For pH determination a Beckman Φ36 pH meter fitted with a Corning Semi-Micro Combination pH Electrode was employed.
The optimal cone voltage was determined to be 20V.
Mass spectrometry—Mass spectrometric analysis was performed using a Waters ZQ 4000 mass spectrometer equipped with a Waters 2795 sample manager. MassLynx 4.0 (earlier by MassLynx 3.5) was used for data processing and analysis. Test compounds were mixed with disaggregated peptides in aqueous media (6.6% EtOH) at a 5:1 ratio (20 μM NAC:100 μM of test compound or 40 μM NAC:200 μM of test compound). The pH of the mixture was adjusted to 7.4 (+0.2) using 0.1% NaOH (3-5 μL). Periodically, NAC peptide solution at 20 μM or 40 μM was also prepared in the same fashion and run as control. The spectra were obtained by introducing the solutions to the electrospray source by direct infusion using a syringe pump at a flow rate of 25 μl/min, and scanning from 100 to 2100 Da in the positive mode. The scan time was 0.9 sec per scan with an inter-scan delay of 0.1 sec and the run time was 5 min for each sample. All the mass spectra were sum of 300 scans. The desolvation and source temperature was 70° C. and the cone and capillary voltage were maintained at 20 V and 3.2 kV respectively.
The total area under the peaks for the bound NAC-compound complex divided by total area under the peaks for unbound NAC was determined for each compound tested.

[1] = system: Aβ peptides (Aβ40, Aβ42) in the plasma and brain of TgCRND8 mice; test: Short term treatment (14 or 28 days) in TgCRND8 mice: Aβ levels in plasma and brain by ELISA; assay type: in vivo, mouse;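 as to Aβ40 Change Insoluble: symbols grade percent change in Aβ versus untreated control with plus for increase and minus for decrease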;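 as to Aβ40 Change Soluble: symbols grade percent change in Aβ versus untreated control with plus for increase and minus for decrease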;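 as to Aβ42 Change Insoluble: symbols grade percent change in Aβ versus untreated control with plus for increase and minus for decrease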
Procedure: The short term therapeutic effect of 19 compounds of the invention was studied. These compounds were administered over a 14 or 28 day period at the end of which the levels of Aβ peptides in the plasma and brain of TgCRND8 animals were determined.
Male and female transgenic mice from the 3rd and 4th B6C3F1 generations were used in this example and given daily subcutaneous or oral administrations of one of a series of compounds for 14 or 28 days. The following abbreviations are used to designate these animals from the 3rd and 4th generation backcross in the present protocol: TgCRND8-2.B6C3F1(N3); TgCRND8-2.B6C3F1 (N4).
Baseline animals (Group 1) consisted of naive TgCRND8-2. B6C3F1(N3) at 11±1 weeks of age. These mice were used to determine the Aβ levels in the plasma and brain of naive transgenic animals at the initiation of treatment.
Starting at 11 weeks of age (±1 week) animals received daily administration of their respective treatment for a period of 14 or 28 days (groups 2-21), at a dose of 250 mg/kg at 10 ml/kg or of vehicle only (water; group 2) or 1% methyl cellulose only (group 21). The route of administration was subcutaneous for water-soluble compounds and oral for compounds solubilized in methylcellulose 1%. (MC 1%). At the end of the treatment periods, plasma and perfused brains were collected for quantification of Aβ levels.
At 11±1 weeks of age for the Baseline group, and at the end of the treatment period (14 or 28 days) for Groups 2 to 21, at 24 hours after the last compound administration animals were sacrificed and samples collected. An approximate blood volume of 500 μl was collected from the orbital sinus and kept on ice until centrifugation at 4° C. at a minimum speed of 3,000 rpm for 10 minutes. Plasma samples were immediately frozen and stored at −80° C. pending analysis. The brains were removed, frozen, and stored at −80° C. awaiting analysis.
Brains were weighted frozen and homogenized with 4 volumes of ice cold 50 mM Tris-Cl pH 8.0 buffer with protease inhibitor cocktail (4 mL of buffer for 1 g of wet brain). Samples were spun at 15000 g for 20 minutes and the supernatants were transferred to fresh tubes. One hundred fifty (150) μl from each supernatant were mixed with 250 μl of 8M guanidine-HCL/50 mM Tris-HCL pH 8.0 (ratio of 0.6 vol supernatant:1 vol 8M guanidium/Tris-HCL 50 mM pH8.0) and 400 μL 5 M guanidium/Tris-HCL 50 mM pH8.0 were added. The tubes were vortexed for 30 seconds and frozen at −80° C. In parallel, pellets were treated with 7 volumes of 5 M guanidine-HCL/50 mM Tris-HCL pH 8.0 (7 mL of guanidine for 1 g of wet brain), vortexed for 30 seconds and frozen at −80° C. Samples were thawed at room temperature, sonicated at 80° C. for 15 minutes and frozen again. This cycle was repeated 3 times to ensure homogeneity and samples were returned to −80° C. pending analysis.
Aβ levels were evaluated in plasma and brain samples by ELISA using Human Aβ40 and Aβ42 Fluorometric ELISA kits from Biosource (Cat. No. 89-344 and 89-348) according to manufacturer's recommended procedures. In short, samples were thawed at room temperature, sonicated for 5 minutes at 80° C. (sonication for brain homogenates; no sonication for plasma samples) and kept on ice. Aβ peptides were captured using 100 μl of the diluted samples to the plate and incubated without shaking at 4° C. overnight. The samples were aspirated and the wells were rinsed 4 times with wash buffer obtained from the Biosource ELISA kit. The anti-Aβ40 or anti-Aβ42 rabbit polyclonal antiserum (specific for the Aβ40 or Aβ42 peptide) was added (100 μl) and the plate was incubated at room temperature for 2 hours with shaking. The wells were aspirated and washed 4 times before adding 100 μl of the alkaline phosphatase labeled anti-rabbit antibody and incubating at room temperature for 2 hours with shaking. The plates were then rinsed 5 times and the fluorescent substrate (100 μl) was added to the plate. […]

[2] = system: Aβ peptides (Aβ40, Aβ42) in the plasma and brain of TgCRND8 mice; test: Long term treatment (8 or 16 weeks) in TgCRND8 mice: Aβ levels in plasma and brain; assay type: in vivo, mouse; conditions: BX subcutaneous, BW and BZ oral
Procedure: The long-term therapeutic effects of compounds of the present invention on cerebral amyloid deposition and β-amyloid (Aβ) levels in the plasma and in the brains of transgenic mice, TgCRND8, expressing the human amyloid precursor protein (hAPP) was studied. These compounds were administered over an 8 or 16 week period at the end of which the levels of Aβ peptides in the plasma and brain of TgCRND8 animals were determined. The goal of this study was to evaluate the efficacy of the compounds at modulating the progression of the amyloidogenic process in the brain and in the plasma of a transgenic mouse model of Alzheimer's disease (AD)
The mice used in the study consisted of animals bearing one copy of the hAPP gene (+/−) from the 2nd and 3rd generation progenies (N2 and N3) derived from backcrosses from TgCRND8.FVB(N2)AJ(N3) with B6AF1/J hybrid animals. • N1=TgCRND8.FVB(N2)AJ(N3)×B6AF1/J • N2=TgCRND8.FVB(N2)AJ(N3).B6AF1/J(N1)×B6AF1/J • N3=TgCRND8.FVB(N2)AJ(N3).B6AF1/J(N2)×B6AF1/J
The following abbreviations are used to designate these animals in the present study: TgCRND8.B6AF1/J(N2); TgCRND8.B6AF1/J(N3). Male and female transgenic mice were given daily subcutaneous (compound BX) or oral (compounds BW and BZ) administrations of the appropriate compounds for 8 or 16 weeks.
Baseline animals consisted of 9±1 week old naive TgCRND8.B6AF1/J animals from the 2nd and 3rd generations. These mice were used to determine the extent of cerebral amyloid deposits and Aβ levels in the plasma and brain of naive transgenic animals at the initiation of treatment.
Starting at 9 weeks of age (+1 week) animals received daily administration of their respective treatment for a period of 8 or 16 weeks, at a dose of 30 or 100 mg/kg at 10 ml/kg. The route of administration was subcutaneous for water-soluble compounds (Compound BX) and oral for compounds solubilized in methylcellulose 1% (MC 1%) (Compounds BW and BZ). At the end of the treatment periods, plasma and perfused brains were collected for quantification of Aβ levels.
Animal health was monitored, samples were collected and Aβ levels were measured as described above in the short term treatment study. Compounds were scored based on their ability to modulate levels of Aβ peptides in the plasma and the cerebral soluble/insoluble levels in the brain. Levels of Aβ observed in the plasma and brain of treated animals were compared to that of vehicle-treated (water) or methylcellulose-treated control groups and ranked according to the strength of the pharmacological effect. Increases in the levels of Aβ peptides are indicated using “+” symbols, while decreases in the levels of Aβ peptides are indicated using “−” symbols. The strongest effects are recorded as “+++” or “−−−” while the weakest are shown as “+” or “−”.
Specifically, increases in the levels of Aβ (relative to vehicle treated control) of 5 to 14% are scored as “+”; increases of 15 to 29% are scored as “++”; and increases of 30% or higher are scored as “+++”. Decreases in the levels of Aβ of 5 to 14% are scored as “−”; decreases of 15 to 29% are scored as “−−”; and decreases of 30% or more are scored as “−−−”. Additionally, changes of 4% or less in either direction are scored as “0”.

[3] = brain homogenate, Day 14, methylcellulose group, daily oral
[4] = brain homogenate, Day 28, methylcellulose group, daily oral
[5] = plasma, Day 28, methylcellulose group, daily oral

## O=S(=O)([O-])OCCCOS(=O)(=O)[O-].[Na+].[Na+] [NaO3SOCH2CH2CH2OSO3Na]
NAC peptide
  Binding Strength: − (None; when the total binding is between 30% and 0%)

## NCCOS(=O)(=O)O [NH2CH2CH2OSO3H]
NAC peptide
  Binding Strength: − (None; when the total binding is between 30% and 0%)

## CC(C)(C)NCCCS(=O)(=O)O [drawing 748]
NAC peptide
  Binding Strength: ++ (Moderate; when the total binding is between 120% and 70%)

## NCCCOS(=O)(=O)[O-].[Na+] [H2NCH2CH2CH2OSO3Na]
NAC peptide
  Binding Strength: ++ (Moderate; when the total binding is between 120% and 70%)

## O=S(=O)(O)CCCNC1C2CC3CC(C2)CC1C3 (centres unmarked) [BZ]
[1]; [3]
  Aβ40 Change Insoluble: −−− (decreases of 39% or more)
  Aβ42 Change Insoluble: −− (decreases of 20 to 38%)
[1]; [4]
  Aβ40 Change Insoluble: −− (decreases of 20 to 38%)
  Aβ40 Change Soluble: −− (decreases of 20 to 38%)
  Aβ42 Change Insoluble: −− (decreases of 20 to 38%)
[1]; plasma, Day 14, methylcellulose group, 250 mg/kg daily oral
  Aβ40 Change: + (increases in the levels of Aβ (relative to untreated control) of 20 to 39%)
[1]; [5]
  Aβ40 Change: ++ (increases of 40 to 69%)
  Aβ42 Change: ++ (increases of 40 to 69%)
[2]; 30 mg/kg daily, 8 wks
  Brain Abeta40 insoluble: −− (decreases of 15 to 29%)
  Brain Abeta40 soluble: 0 (changes of 4% or less in either direction)
  Brain Abeta42 insoluble: −−− (decreases of 30% or more)
  Brain Abeta42 soluble: 0 (changes of 4% or less in either direction)
  Plasma Abeta40: 0 (changes of 4% or less in either direction)
  Plasma Abeta42: 0 (changes of 4% or less in either direction)
[2]; 30 mg/kg daily, 16 wks
  Brain Abeta40 insoluble: + (increases in the levels of Aβ (relative to vehicle treated control) of 5 to 14%)
  Brain Abeta40 soluble: 0 (changes of 4% or less in either direction)
  Brain Abeta42 insoluble: 0 (changes of 4% or less in either direction)
  Brain Abeta42 soluble: + (increases in the levels of Aβ (relative to vehicle treated control) of 5 to 14%)
  Plasma Abeta40: 0 (changes of 4% or less in either direction)
  Plasma Abeta42: + (increases in the levels of Aβ (relative to vehicle treated control) of 5 to 14%)
[2]; 100 mg/kg daily, 8 wks
  Brain Abeta40 insoluble: 0 (changes of 4% or less in either direction)
  Brain Abeta40 soluble: ++ (increases of 15 to 29%)
  Brain Abeta42 insoluble: − (Decreases in the levels of Aβ of 5 to 14%)
  Brain Abeta42 soluble: 0 (changes of 4% or less in either direction)
  Plasma Abeta40: ++ (increases of 15 to 29%)
  Plasma Abeta42: +++ (increases of 30% or higher)
[2]; 100 mg/kg daily, 16 wks
  Brain Abeta40 insoluble: 0 (changes of 4% or less in either direction)
  Brain Abeta40 soluble: −− (decreases of 15 to 29%)
  Brain Abeta42 insoluble: + (increases in the levels of Aβ (relative to vehicle treated control) of 5 to 14%)
  Brain Abeta42 soluble: − (Decreases in the levels of Aβ of 5 to 14%)
  Plasma Abeta40: ++ (increases of 15 to 29%)
  Plasma Abeta42: ++ (increases of 15 to 29%)

## NCCS(=O)(=O)O [H2NCH2CH2SO3H]
NAC peptide
  Binding Strength: + (Weak; when the total binding is between 70% and 30%)

## O=S(=O)(O)CCCNC1C2CC3CC(C2)CC1C3 (centres unmarked) [drawing 749]
NAC peptide
  Binding Strength: ++ (Moderate; when the total binding is between 120% and 70%)

## NCCCCS(=O)(=O)O
NAC peptide
  Binding Strength: + (Weak; when the total binding is between 70% and 30%)

## O=S(=O)(O)CC(O)CNC1CCCCC1 (centres unmarked) [drawing 751]
NAC peptide
  Binding Strength: +++ (Strong; when the total binding is 120% and higher)

## O=S(=O)([O-])CCCCS(=O)(=O)[O-].[Na+].[Na+] [NaO3SCH2(CH2)2CH2SO3Na]
NAC peptide
  Binding Strength: − (None; when the total binding is between 30% and 0%)
